From patent US12466827B2, “1,3,4-oxadiazole derivative compounds as histone deacetylase 6 inhibitor, and the pharmaceutical composition comprising the same” (CHONG KUN DANG PHARMACEUTICAL CORP., priority 2020, dated 2025) come the findings set out here.

Broadly, the IC50 is the concentration that gives 50% inhibition.

One test concerns the target T1, human recombinant HDAC6 (Homo sapiens, UniProt Q9UBN7).
T1 construct: purchased Calbiochem Inc. 382180
T1 sequence (Q9UBN7 1-1215): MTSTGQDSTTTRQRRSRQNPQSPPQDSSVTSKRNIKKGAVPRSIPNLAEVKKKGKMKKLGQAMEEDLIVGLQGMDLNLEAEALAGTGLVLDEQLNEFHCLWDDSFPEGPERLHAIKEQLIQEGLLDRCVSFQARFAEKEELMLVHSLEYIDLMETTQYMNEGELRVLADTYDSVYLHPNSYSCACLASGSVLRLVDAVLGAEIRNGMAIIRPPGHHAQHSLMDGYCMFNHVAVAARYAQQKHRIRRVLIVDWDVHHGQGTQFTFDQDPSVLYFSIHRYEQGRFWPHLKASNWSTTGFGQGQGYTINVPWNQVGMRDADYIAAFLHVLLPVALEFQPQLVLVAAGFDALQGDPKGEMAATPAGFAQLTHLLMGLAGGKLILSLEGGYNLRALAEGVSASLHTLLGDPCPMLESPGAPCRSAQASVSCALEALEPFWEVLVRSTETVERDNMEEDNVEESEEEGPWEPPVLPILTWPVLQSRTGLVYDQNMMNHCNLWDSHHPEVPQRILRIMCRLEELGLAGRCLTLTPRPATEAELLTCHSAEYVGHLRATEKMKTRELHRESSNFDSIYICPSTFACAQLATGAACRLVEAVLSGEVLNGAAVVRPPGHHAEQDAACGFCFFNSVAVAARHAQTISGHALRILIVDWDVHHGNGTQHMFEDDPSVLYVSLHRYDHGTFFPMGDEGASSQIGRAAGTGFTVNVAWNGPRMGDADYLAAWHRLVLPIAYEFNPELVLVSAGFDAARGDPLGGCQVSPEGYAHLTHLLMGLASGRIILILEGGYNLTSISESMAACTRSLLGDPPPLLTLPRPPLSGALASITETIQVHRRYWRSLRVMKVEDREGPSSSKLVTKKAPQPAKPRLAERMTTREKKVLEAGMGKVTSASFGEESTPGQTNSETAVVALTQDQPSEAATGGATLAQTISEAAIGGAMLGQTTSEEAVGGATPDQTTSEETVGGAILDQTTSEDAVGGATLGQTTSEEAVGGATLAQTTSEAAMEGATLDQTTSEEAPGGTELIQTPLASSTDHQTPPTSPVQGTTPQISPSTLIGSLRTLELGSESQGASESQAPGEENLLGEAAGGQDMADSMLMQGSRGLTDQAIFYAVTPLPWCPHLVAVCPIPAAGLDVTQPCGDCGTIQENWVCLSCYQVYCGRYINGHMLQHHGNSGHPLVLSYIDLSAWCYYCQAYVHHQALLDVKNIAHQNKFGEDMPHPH
Briefly: In vitro HDAC enzyme activity inhibition assay (HDAC6). The format is biochemical. Conditions: for HDAC6 selectivity (fold): HDAC6 over HDAC1; for IC50: same protocol as the HDAC1 test, human recombinant HDAC6 (Calbiochem). The essentials: (§1)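 Fluorimetric deacetylase kit: human recombinant HDAC1 or HDAC6 (0.3 μg) with 10 μM Fluor de Lys-SIRT1 substrate and 5-fold diluted compounds, 60 min at 30° C. Developer added for 30 min, fluorescence read at Ex 360/Em 460, IC50 calculated.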

Another test has as its target T2, human recombinant HDAC1 (Homo sapiens, UniProt Q13547).
T2 construct: purchased Enzo Life Sciences, Inc. BML-SE456
Briefly: In vitro HDAC enzyme activity inhibition assay (HDAC1). The class given is biochemical. Conditions: Fluor de Lys-SIRT1 substrate 10 μM, 30° C., 60 minutes, fluorescence. The essentials: as §1

T2 sequence (Q13547 whole entry): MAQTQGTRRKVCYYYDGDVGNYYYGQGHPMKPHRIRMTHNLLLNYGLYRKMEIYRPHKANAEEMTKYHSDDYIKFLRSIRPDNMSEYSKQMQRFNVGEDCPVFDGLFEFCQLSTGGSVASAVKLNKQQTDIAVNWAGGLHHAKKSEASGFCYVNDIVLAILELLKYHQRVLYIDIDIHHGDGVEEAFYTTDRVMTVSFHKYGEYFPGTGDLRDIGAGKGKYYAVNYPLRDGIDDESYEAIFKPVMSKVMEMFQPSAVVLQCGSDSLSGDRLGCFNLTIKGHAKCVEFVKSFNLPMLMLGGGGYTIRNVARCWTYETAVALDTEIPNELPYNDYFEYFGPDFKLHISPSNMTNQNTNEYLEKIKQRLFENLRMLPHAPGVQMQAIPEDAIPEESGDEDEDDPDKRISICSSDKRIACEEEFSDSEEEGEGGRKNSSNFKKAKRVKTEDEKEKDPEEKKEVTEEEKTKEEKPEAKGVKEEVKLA

In the case of `O=S(=O)(N1CCN(C2CC3(COC3)C2)CC1)N(Cc1cn2ccc(-c3nnc(C(F)F)o3)cc2n1)c1cccc(F)c1` [Compound 4623, N-((7-(5-(difluoromethyl)-1,3,4-oxadiazol-2-yl)imidazo[1,2-a]pyridin-2-yl)methyl)-N-(3-fluorophenyl)-4-(2-oxaspiro[3.3]heptan-6-yl)piperazine-1-sulfonamide], at human recombinant HDAC6, the “HDAC6 selectivity (fold)” value was 806 fold. The IC50 was 0.062 µM at human recombinant HDAC6 and greater than 50 µM on human recombinant HDAC1.
For `CN1CC2(C1)CN(S(=O)(=O)N(Cc1cn3ccc(-c4nnc(C(F)F)o4)cc3n1)c1ccccc1)C2` [Compound 4624, N-((7-(5-(difluoromethyl)-1,3,4-oxadiazol-2-yl)imidazo[1,2-a]pyridin-2-yl)methyl)-6-methyl-N-phenyl-2,6-diazaspiro[3.3]heptan-2-sulfonamide], in that order: 595 fold, 0.084 µM and greater than 50 µM.
For `CC(C)(C)OC(=O)N1CCC(S(=O)(=O)N(Cc2cn3ccc(-c4nnc(C(F)(F)F)o4)cc3n2)c2cccc(F)c2)CC1` [Compound 6893, tert-butyl 4-(N-(3-fluorophenyl)-N-((7-(5-(trifluoromethyl)-1,3,4-oxadiazol-2-yl)imidazo[1,2-a]pyridin-2-yl)methyl)sulfamoyl)piperidine-1-carboxylate], in that order: 16 fold, 3.12 µM and greater than 50 µM.
